The structures appear in SMILES notation.

One data set concerns mouse islets. Briefly: ROS accumulation in isolated islets (mitoSOX red, CM-H2-DCFDA). The class given is cell-based. As to conditions: 200 μM, after 4 and 24 hrs of treatment. As to the method: (§1) A) Proinsulin in the media of 24 hr treated islets (n=4/group). B) Mitochondrial membrane potential (MMP) following acute addition of vehicle control or 200 μM of CMPF (N=3/group). C) ROS levels in 4- and 24-hour treated mouse islets with representative images (N=10-15 islets/mouse from 4 mice/group). D) Expression of antioxidant genes Cat and (e) Ucp2 (n=4/group). F) ROS accumulation in 24 hr-treated islets treated with 500 μM NAC (n=10 islets/mouse from 4 mice/group). G) GSIS and (h) total insulin content from 24 hr-treated islets co-treated with 500 μM NAC (n=4/group). Western blots showing (i) Ser9 phosphorylation of GSK3β, (j) Ser473 phosphorylation of AKT (n=3/group). K) Immunofluorescent staining showing nuclear translocation of FOXO1 and (l) PDX1 with CMPF and NAC treatment (n=3-6). Quantification of nuclear percentage of (m) FOXO1 and (n) PDX1 based on immunofluorescent staining with CMPF and NAC treatment. O) Western blots showing protein abundance of PDX1 and FOXO1. Values are mean+/−SEM. Student's t-test (a, c-j, m-o), one-way ANOVA (b). *P<0.05, **P<0.01, ***P<0.001.
The level of superoxide and H2O2 were determined using mitoSOX red and 2′,7′-dichlorodihydro fluorescein diacetate (CM-H2-DCFDA) respectively (Molecular Probes, Invitrogen, Canada) in isolated islets treated with either vehicle control or 200 μM CMPF for 4 or 24 hours, as previously described (Lee et al. 2009). […]

For a further data set, the system named is human islets. Briefly: Total insulin content in human islets. The format is cell-based. Particulars: 200 uM, 24 hrs, vs vehicle. On the procedure: In the absence of apoptosis and necrosis, CMPF must be impairing GSIS by causing beta cell dysfunction. First, the effect of CMPF treatment on insulin biosynthesis was investigated to determine if insulin is available to be released upon stimulation. MIN6, murine and human islets were treated with vehicle control, 20 uM and 200 uM CMPF for 4 hrs (MIN6) or 24 hrs (islets), and total insulin content measured. […] Lower total insulin content may be due to either defective insulin processing from proinsulin to mature insulin, or insufficient insulin transcription. To determine the mechanism through which CMPF is reducing total insulin content, quantitative PCR (qPCR) was performed on RNA that was isolated from murine islets treated with either vehicle control or 200 uM CMPF for 24 hrs.

For data set [1], the system named is dispersed CD1 mouse islet cells. As to the kind of experiment: Immunofluorescent staining of FOXO1 and PDX1 localization. The format is cell-based. As to conditions: CMPF-treated islets. On the procedure: The cellular localization of FOXO1 and PDX1 were determined in dispersed CD1 mouse islet cells using immunofluorescence. The presence of the organic anion transporters (OATs) were determined in dispersed human islet cells also using immunofluorescence. Staining was performed as previously described (Diao et al., 2008). Images were acquired using a confocal microscope (Quorum Wave FX Spinning Disc; Perkin Elmer, Waltham M L, USA) and Volocity software (Perkin Elmer).
To determine the mechanism through which CMPF decreases insulin biosynthesis we examined its effect on these key regulators. Under normal conditions, AKT and GSK3β have reciprocal activities. Active pAKT phosphorylates and inactivates GSK3β, preventing phosphorylation of downstream targets (Humphrey et al., 2010). […] FOXO1 is normally sequestered in the cytosol due to phosphorylation by AKT (Kitamura et al., 2005). […] Altered activity of these transcription factors is further confirmed by decreased mRNA levels of key target genes including Inst, transcription factors Pdx1 and Mafa, proinsulin processing enzymes CpE, Pc1 and Pc2, and the glucose transporter Glut2 (Boucher et al., 2006; Kaneto et al. 2008) (FIG. 18a).

The test system of another data set is CD1 mice. As to the kind of experiment: IP injection for 3 or 7 days: monitoring, fasting values, OGTT, ipITT. The format is in vivo. Particulars: for fasting blood glucose / fasting plasma insulin / glucose tolerance (OGTT) / insulin secretion during OGTT: 14 hr fast. On the procedure: (§2) CD1 mice were injected IP with either vehicle control (black) or CMPF (white). A) Plasma samples were taken at 10, 30, 60, 120 and 360 minutes post-IP injection and assayed for CMPF. […] Over the 3-day course of IP injections, mice were monitored for body weight (B), random-fed blood glucose (C) and plasma insulin (C). There was no difference in any of these parameters. Following 3 consecutive days of CMPF injections, mice were fasted for 14 hrs and OGTTs were performed.
CD1 mice were injected IP with either vehicle control (black) or CMPF (white). Over the 7-day course of IP injections, mice were monitored for body weight (A), and random-fed blood glucose (B) and plasma insulin (C). […] The lower body weights on day 8 are following a 14-hour fast, immediately prior to the OGTTs. Following 7 consecutive days of CMPF injections, mice were fasted for 14 hrs and OGTTs were performed. […] (n=8 per group, p<0.05).
To investigate the effect of CMPF on glucose homeostasis, (FIG. 8C). […] Therefore, elevated plasma CMPF concentrations cause impaired beta cell function and prevent GSIS in vivo, resulting in glucose intolerance. Chronically elevated CMPF levels may also induce insulin resistance. […]

The subject of the next data set is islets. Briefly: Insulin and proinsulin in the media of 24 hr treated islets. The format is cell-based, mouse. As to conditions: 24 hr treatment. On the procedure:
as §1, with “O) Western blots showing protein abundance of PDX1 and FOXO1. Values are mean+/−SEM. Student's t-test (a, c-j, m-o), one-way ANOVA (b). *P<0.05, **P<0.01, ***P<0.001.” left out
Lower total insulin content may be due to beta-cell exhaustion caused by over-stimulation and/or defective insulin production. To determine the mechanism through which CMPF diminishes insulin content, we measured insulin in the media following 24 hr treatment. […] To first determine if CMPF is metabolized by beta-cells, we measured changes in mitochondrial membrane potential (MMP) in mouse islets acutely treated with CMPF. […]

Data set [2] in a line: Plasma CMPF after IP injection. The class given is in vivo, CD1 mice. Particulars: for up to 2 hours but not at 6 hours post-injection, n=4/group. On the procedure: as §2
Setting [3] is: after seven days of IP injection.
[4] abbreviates: after three days of IP injection.

For `CCCc1oc(CCC(=O)O)c(C(=O)O)c1C` [CMPF, 3-carboxy-4-methyl-5-propyl-2-furanpropanoic acid], the “increase in ROS over controls” value with mouse islets turned out to be 2 fold. Further, the total insulin content result with human islets was “significantly reduced”. Further, in data set [1], the FOXO1 localization entry is on record as “translocated to the nucleus” and the PDX1 localization entry is “sequestered outside of the nucleus”. Besides, in the data set with CD1 mice (3-day course of IP injections), the body weight entry is given as “no difference”, the random-fed blood glucose result is listed as “no difference” and the random-fed plasma insulin result is reported as “no difference”. For the same compound, in the data set with CD1 mice (7-day course of IP injections), the body weight entry is “no difference” and the random-fed blood glucose result was “no difference”. In the data set with CD1 mice (setting [3]), the fasting blood glucose entry is “significantly higher” and the fasting plasma insulin result is listed as “significantly higher”. In addition, in the data set on CD1 mice (setting [4]), the fasting blood glucose result is on record as “significantly higher” and the fasting plasma insulin entry is recorded as “significantly lower”. Moreover, in the data set with CD1 mice (after 3 days of IP injection), the “glucose tolerance (OGTT)” value is reported as “impaired glucose tolerance” and the “insulin secretion during OGTT” value is on record as “significantly impaired insulin secretion”. Moreover, in the data set with CD1 mice (after 7 days of IP injection), the “glucose tolerance (OGTT)” value is given as “significantly impaired glucose tolerance” and the “insulin secretion during OGTT” value is “significantly impaired insulin secretion”. Besides, the random-fed plasma insulin result in the data set with CD1 mice (days 4-7 of injections) is given as “significantly elevated”. The fed-state glucagon entry in the data set with CD1 mice (seven-day treatment) was “hyperglucagonemia”. Besides, in the data set on CD1 mice (seven-day treatment, vs vehicle), the “insulin sensitivity by insulin-tolerance testing (ipITT)” value is recorded as “no significant difference”. In addition, in the data set with islets, the “accumulation of total insulin in the media” value is on record as “no difference” and the “proinsulin in the media” value is reported as “substantially more proinsulin”. Also, the “plasma CMPF level after IP injection” value in data set [2] was “significantly elevated”.
